Laboratory results published in patent US10752690B2, “Biologically active molecule conjugates, reagents and methods of manufacture, and therapeutic uses” (REGENERON PHARMACEUTICALS, INC., priority 2014, dated 2020).
Residues, ends and D or L forms follow the SMILES beside them.

Tests used:
Assay type in all cases: cell-based
[1] = test system: HEK293; assay: In vitro cytotoxicity assay (CCK8 cell viability), native HEK293 cells (no target expressed); settings: Homo sapiens, HEK293, 72 h
Protocol: (§1) Cells were seeded in Nunclon Delta Surface 96 well plates at 1000 (HEK293 and HEK293/PRLR) or 6000 (T47D) cells per well, and cells were grown overnight in complete growth media. For cell viability curves, serially diluted conjugates or free representative payloads were added to the cells at final concentrations ranging from 100 nM to 5 pM and incubated for 3 days. To measure viability, cells were incubated with CCK8 (Dojindo) for the final 1-3 hours and the absorbance at 450 nm (OD450) was determined on a Victor X4 (PerkinElmer). Background OD450 levels (CCK8) from digitonin ([…]) treated cells were subtracted from all wells and viability is expressed as a percentage of the untreated controls. IC50 values were determined from a four-parameter logistic equation over a 10-point response curve (GraphPad Prism). Maytansinoid conjugate curves and IC50 values are corrected for payload equivalents based on the UV DAR value. For the auristatin (MMAF) conjugate, the IC50 values are assigned a DAR of 1 (i.e., equal to antibody concentration) since a good estimate cannot be obtained by UV or mass spectrometry.

[2] = test system: HEK293/hPRLR; assay: In vitro cytotoxicity assay (CCK8 cell viability), engineered HEK293/hPRLR cells; settings: Homo sapiens, HEK293, 72 h
Protocol: as §1

[3] = test system: T47D; assay: In vitro cytotoxicity assay (CCK8 cell viability), endogenous cell line T47D; settings: Homo sapiens, 72 h
Protocol: as §1

Measured: IC50

CC[C@H](C)[C@@H]([C@@H](CC(=O)N1CCC[C@H]1[C@H](OC)[C@@H](C)C(=O)N[C@@H](Cc1ccccc1)C(=O)O)OC)N(C)C(=O)[C@@H](NC(=O)[C@@H](NC)C(C)C)C(C)C [compound 27, Monomethyl Auristatin F] (HELM PEPTIDE1{[meV].V.[CC[C@H](C)[C@@H]([C@@H](CC(=O)[*:2])OC)N(C)[*:1]].[CO[C@H]([C@@H](C)C(=O)[*:2])[C@@H]1CCCN1[*:1]].F}$$$$V2.0)
> 100 nM: all assays above
